This is an account of results in publication PMC5661635, “Targeting the CXCR4/CXCL12 axis with the peptide antagonist E5 to inhibit breast tumor progression” (Signal Transduction and Targeted Therapy, 2017).

The subject of one data set is CXCR4. The settings on record: cited from earlier work. An excerpt: Nevertheless, challenges still exist in clinical applications. […] In addition, it is known that existing pep ...
The next data set concerns 4T1 tumors. Nature of the data set: 4T1 breast cancer model in BALB/c mice. Conditions: day 33 after inoculation; E5 40 mg kg^-1 s.c. every other day; PTX 8 mg kg^-1 i.p. once a week; n=9. It is filed as in vivo. On the procedure: For animal experiments, 1×10^6 4T1 cells were orthotopically inoculated into the right fourth mammary fat pat of BALB/c mice. Seven days after inoculation, the mice were randomized in six groups (n=9 for each group): the control group, the E5 (40 mg kg^−1) group, the chemotherapeutic drug groups (cyclophosphamide (CTX, 90 mg kg^−1) or paclitaxel (PTX, 8 mg kg^−1)), and a group consisting of E5 combined with one of the drugs. E5 solution was subcutaneously injected around solid tumors every other day, and drugs were intraperitoneally injected once a week. The control tumor-bearing mice were treated an equal volume of solvent. The tumor sizes were measured every four days with a caliper. Tumor volume was calculated according to the formula: V=(a×b^2)/2, where a and b are the maximal and minimal diameter in millimeters, respectively. On day 33 after cell injection, the mice were killed by cervical dislocation. The tumors and main organs from each group were weighed immediately after dissection and preserved at −80 °C for further analysis.

A further data set relates to HUVECs. Nature of the data set: CCK-8 cell viability assay. Format: cell-based, human. The settings on record: E5 concentrations up to 100 μM, 24 h. In general terms: Formazan colour is commonly taken as a measure of viable cells.
The conditions of data set [1]: E5 every other day in healthy BALB/c mice; cited from earlier work. Here is the method:
(§1) The cytotoxicity of blocking CXCR4 with antagonists depends on the concentration and the cell types. For instance, CXCR4 antagonist BKT140 could induce 15–35% cell death at 4 or 8 μM. When its concentration was high as 20 μM, the cell death rate was about 60%.[35]

Data set [2] relates to multiple acute myeloid leukemia cell lines. Conditions: E5 below 30 μM; cited from earlier work. Here is the method: as §1
The subject of a further data set is 4T1 cells. The data set can be described thus: Drug sensitivity under CXCL12 stimulus or conditional medium (CCK-8). It is filed as cell-based, murine. The settings on record: E5 10 μM; MS-5 conditional medium or medium with 200 ng ml^-1 CXCL12; paclitaxel 4, 20, 100 nM, elemene 10, 20, 40 mg l^-1, cisplatin 2, 4, 8 μM; 24 h. Here is the method: Briefly, 1×10^4 4T1 cells were pre-seeded in 96-well culture plates and incubated overnight. Then, the cells were treated with 10 μM E5 in serum-free medium for 2 h, followed by the addition of either complete medium with 200 ng ml^−1 CXCL12 or conditional medium obtained from 48 h of incubation with MS-5 cells for an additional 4 h of treatment. After that, the cells were incubated the chemotherapeutic drugs paclitaxel (4, 20 and 100 nM), elemene (10, 20 and 40 mg l^−1), or cisplatin (2, 4 and 8 μM) for an additional 24 h. The 4T1 cell viability was analyzed using the CCK-8 assay. The absorbance value of 4T1 cells in the absence of drug treatment was set as 100%.

The conditions of data set [3]: in vivo; cited from earlier work.

No end group written: not given here.

In the case of `c1cc(CN2CCCNCCNCCCNCC2)ccc1CN1CCCNCCNCCCNCC1` [AMD3100, Plerixafor], the agonist activity entry with CXCR4 is reported as “weak partial agonist activity”.

Consider `CC(=O)O[C@H]1C(=O)[C@@]2(C)[C@H]([C@H](OC(=O)c3ccccc3)[C@]3(O)C[C@H](OC(=O)[C@H](O)[C@@H](NC(=O)c4ccccc4)c4ccccc4)C(C)=C1C3(C)C)[C@]1(OC(C)=O)CO[C@@H]1C[C@@H]2O` [PTX, paclitaxel], for which the “effect on tumor weight compared with the control group” value with 4T1 tumors was “did not show a significant inhibitory effect”.

Take GGRSFFLLRRIQGCRFRNTVDD [E5]: the “cytotoxicity to HUVECs” value in the data set with HUVECs is reported as “did not show obvious cytotoxicity”. The “side effects (organs weight, serum clinical parameters, H&E of heart, kidney, lung, spleen)” value in data set [1] is listed as “did not show detectable side effects”. Further, the “direct induction of cell death” value in data set [2] is given as “did not induce cell death directly”. Also, the “effect on cytotoxic effects of paclitaxel, elemene and cisplatin to 4T1” value with 4T1 cells is reported as “could enhance the cytotoxic effects”.

Take LY2510924: in data set [3], the half-life is 3 to 5 h.

Broadly, the half-life is the time needed for the level to fall by half in the phase considered.
